Columns and labels:
[1] = stability test at 40° C., relative humidity 75%, 12 months; assay type: physicochemical; settings: relative humidity of 75%
Procedure: The experiment conditions for testing the stability are: under temperature of 40° C., at relative humidity of 75%, 12 months. Within this period, the trihydrate compound remain no change.

[2] = according to Chinese patent 95193984.X; cited from earlier work
[3] = stability in high temperature; assay type: physicochemical
Procedure: 2. Lower operation temperature (below 40° C.). As Docetaxel's stability is bad in high temperature, this will help to avoid any purity drop of Docetaxel in purification process.

[4] = system: transferring breast cancer; settings: cited from earlier work
[5] = exposure in light (purity); assay type: physicochemical; settings: exposed in light for 10 hours
Excerpt: It is sensitive to light in some way. Shortening of the filtration time decreased the exposure time, thus the reduction of purity was avoided.

Compound | stability [1] | stability compared with anhydrous compound [2] | stability in high temperature [3] | CR (Complete Resultful) ([4]; one research report) | total chemotherapy efficiency of single Docetaxel ([4]; phase II clinical trial, patients who have received chemotherapy, generally 100 mgs/m^2, infusion, once per 3 weeks) | purity on exposure in light [5]
CC(=O)O[C@@]12CO[C@@H]1C[C@H](O)[C@@]1(C)C(=O)[C@H](O)C3=C(C)[C@@H](OC(=O)[C@H](O)[C@@H](NC(=O)OC(C)(C)C)c4ccccc4)C[C@@](O)([C@@H](OC(=O)c4ccccc4)[C@H]21)C3(C)C [Docetaxel trihydrate, (2′R,3′S)-N-carboxy-3-phenylisoserine, N-tert-butyl ester, 13-ester with 5β,20-epoxy-1β,2α,4α,7β,10β,13α-hexahydroxytax-11-en-9-one 4-acetate-2-benzoate, trihydrate] | no change | more stable than its anhydrous compound |  |  |  | 
CC(=O)O[C@@]12CO[C@@H]1C[C@H](O)[C@@]1(C)C(=O)[C@H](O)C3=C(C)[C@@H](OC(=O)[C@H](O)[C@@H](NC(=O)OC(C)(C)C)c4ccccc4)C[C@@](O)([C@@H](OC(=O)c4ccccc4)[C@H]21)C3(C)C [Docetaxel] |  |  | bad | 4% | 47% | purity dropped
